Measurements as given in patent US12447170B2, “Use of maribavir in treatment regimens” (priority 2021, dated 2025).
“Also recorded” adds a separate entry of the source. Like-named read-outs stand apart in the source and are kept apart here.

Columns and labels:
[1] = biological target: CYP3A (Homo sapiens, UniProt P08684); experiment: Time-dependent inhibition of CYP3A in HLM (IC50 shift and enzyme inactivation kinetics); assay type: in vitro ADME; set-up: from tissue; host or cells: human liver microsomes; conditions: human liver microsomes; for kinact: read-out: kinact (maximum enzyme inactivation rate constant), TDI of CYP3A (converted)
Chain of CYP3A (P08684 2-503): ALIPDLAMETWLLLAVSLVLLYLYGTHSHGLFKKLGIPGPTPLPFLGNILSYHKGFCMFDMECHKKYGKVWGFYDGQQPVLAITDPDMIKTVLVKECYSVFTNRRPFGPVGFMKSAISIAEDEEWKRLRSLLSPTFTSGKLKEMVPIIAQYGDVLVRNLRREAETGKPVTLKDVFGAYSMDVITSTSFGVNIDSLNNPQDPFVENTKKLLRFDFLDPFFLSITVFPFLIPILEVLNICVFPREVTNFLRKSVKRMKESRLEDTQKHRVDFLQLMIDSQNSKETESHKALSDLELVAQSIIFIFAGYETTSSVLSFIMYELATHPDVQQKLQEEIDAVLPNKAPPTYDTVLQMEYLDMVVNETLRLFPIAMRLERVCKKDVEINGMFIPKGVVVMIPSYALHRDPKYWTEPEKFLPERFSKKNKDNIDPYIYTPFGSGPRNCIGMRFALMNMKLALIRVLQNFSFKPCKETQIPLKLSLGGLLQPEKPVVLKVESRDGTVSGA
Method: Time-dependent inhibition (TDI) potentials for various CYP enzymes were evaluated by a 30 minute pre-incubation of maribavir with HLM in the presence and absence of nicotinamide-adenine dinucleotide […] (NADPH) followed by a CYP enzyme activity assay.
Enzyme inactivation kinetics of maribavir for the TDI of CYP3A, with midazolam and testosterone as probe substrates, was evaluated by pre-incubation of HLM with maribavir at various concentrations with NADPH for six different pre-incubation time frames. CYP3A activity was measured by determining the formation of CYP3A probe metabolite. Inhibitor concentration at half maximal enzyme inactivation (KI), and maximum enzyme inactivation rate constant (kinact), were estimated using non-linear least-square regression.

[2] = PBPK simulation of maribavir with rifampicin; set-up: species or system human
Method: A comparison of observed and predicted plasma concentrations of maribavir following multiple oral doses of 400 mg administered in the absence of rifampicin and during concurrent treatment with rifampicin was performed. Subjects took maribavir 400 mg BID on Days 1-3 (5 doses), then rifampicin 600 mg QD on Days 4 through 12, followed by both maribavir 400 mg (BID) and rifampicin 600 mg QD on Days 13 and 14, with final doses of maribavir and rifampicin on the morning of Day 15. […]

[3] = biological target: T1, CYP2A6 (Homo sapiens, UniProt P11509); experiment: Reversible CYP inhibition in human liver microsomes (HLM); assay type: in vitro ADME; conditions: up to 100 μM
T1 construct: from tissue; host or cells: human liver microsomes
T1 sequence (P11509 1-494): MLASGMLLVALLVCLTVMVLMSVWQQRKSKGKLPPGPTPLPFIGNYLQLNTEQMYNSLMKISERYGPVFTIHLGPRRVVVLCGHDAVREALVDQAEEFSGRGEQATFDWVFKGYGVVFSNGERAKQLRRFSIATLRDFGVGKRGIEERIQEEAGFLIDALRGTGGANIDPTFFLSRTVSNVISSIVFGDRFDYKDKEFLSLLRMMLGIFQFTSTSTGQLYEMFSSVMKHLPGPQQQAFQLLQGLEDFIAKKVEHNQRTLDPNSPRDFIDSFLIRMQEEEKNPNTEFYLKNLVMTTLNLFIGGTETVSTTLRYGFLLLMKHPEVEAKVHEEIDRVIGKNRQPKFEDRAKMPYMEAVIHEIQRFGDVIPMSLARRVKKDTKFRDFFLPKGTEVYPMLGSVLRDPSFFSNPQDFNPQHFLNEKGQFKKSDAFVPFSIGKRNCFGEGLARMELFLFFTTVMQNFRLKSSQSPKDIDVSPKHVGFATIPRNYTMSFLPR
Method: (§1) HLM were used to evaluate maribavir's half maximal inhibitory concentration (IC50) on inhibition of activities of nine CYP isoforms. Probe substrates were phenacetin (CYP1A2), coumarin (CYP2A6), bupropion (CYP2B6), paclitaxel (CYP2C8), tolbutamide (CYP2C9), (S)-mephenytoin (CYP2C19), dextromethorphan (CYP2D6), clorzoxazone (CYP2E1), and midazolam and testosterone (CYP3A4).
(§2) CYP activities with 0, 0.1, 0.3, 1, 3, 10, 30, and 100 μM of maribavir were evaluated.

[4] = biological target: T2, CYP3A4 (Homo sapiens, UniProt P08684); experiment: as above; assay type: in vitro ADME; conditions: up to 100 μM
T2 construct: from tissue; host or cells: human liver microsomes
T2 sequence (P08684 whole entry): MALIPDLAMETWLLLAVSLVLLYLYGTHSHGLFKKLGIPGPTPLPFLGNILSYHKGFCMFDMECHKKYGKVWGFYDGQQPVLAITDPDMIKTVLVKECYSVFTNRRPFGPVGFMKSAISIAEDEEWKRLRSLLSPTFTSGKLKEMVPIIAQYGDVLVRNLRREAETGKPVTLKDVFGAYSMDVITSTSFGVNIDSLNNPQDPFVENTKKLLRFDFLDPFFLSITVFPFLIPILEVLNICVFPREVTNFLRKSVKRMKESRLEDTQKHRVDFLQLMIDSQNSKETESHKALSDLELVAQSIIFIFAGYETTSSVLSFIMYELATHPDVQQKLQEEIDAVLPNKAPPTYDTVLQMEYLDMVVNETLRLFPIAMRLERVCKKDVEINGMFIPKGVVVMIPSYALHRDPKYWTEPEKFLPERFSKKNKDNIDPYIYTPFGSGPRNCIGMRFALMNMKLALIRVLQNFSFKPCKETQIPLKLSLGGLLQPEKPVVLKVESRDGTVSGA
Method: as §1, §2

[5] = biological target: T3, CYP2E1 (Homo sapiens, UniProt P05181); experiment: as above; assay type: in vitro ADME; conditions: up to 100 μM
T3 construct: from tissue; host or cells: human liver microsomes
T3 sequence (P05181 whole entry): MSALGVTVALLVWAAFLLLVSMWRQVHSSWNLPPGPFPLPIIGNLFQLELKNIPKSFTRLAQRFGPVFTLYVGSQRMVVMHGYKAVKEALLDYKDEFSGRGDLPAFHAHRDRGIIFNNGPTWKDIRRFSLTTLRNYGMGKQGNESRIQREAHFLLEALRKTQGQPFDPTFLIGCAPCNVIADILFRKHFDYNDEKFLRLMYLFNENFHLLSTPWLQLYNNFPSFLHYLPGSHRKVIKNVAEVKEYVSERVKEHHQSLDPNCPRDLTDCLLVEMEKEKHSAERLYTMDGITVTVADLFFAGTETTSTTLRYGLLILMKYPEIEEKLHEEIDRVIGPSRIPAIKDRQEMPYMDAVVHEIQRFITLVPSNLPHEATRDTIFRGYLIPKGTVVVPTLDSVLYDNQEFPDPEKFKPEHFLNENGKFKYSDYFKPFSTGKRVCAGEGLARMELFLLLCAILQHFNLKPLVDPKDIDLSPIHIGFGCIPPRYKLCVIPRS
Method: as §1, §2

[6] = biological target: T4, CYP2B6 (Homo sapiens, UniProt P20813); experiment: as above; assay type: in vitro ADME; conditions: up to 100 μM
T4 construct: from tissue; host or cells: human liver microsomes
T4 sequence (P20813 1-491): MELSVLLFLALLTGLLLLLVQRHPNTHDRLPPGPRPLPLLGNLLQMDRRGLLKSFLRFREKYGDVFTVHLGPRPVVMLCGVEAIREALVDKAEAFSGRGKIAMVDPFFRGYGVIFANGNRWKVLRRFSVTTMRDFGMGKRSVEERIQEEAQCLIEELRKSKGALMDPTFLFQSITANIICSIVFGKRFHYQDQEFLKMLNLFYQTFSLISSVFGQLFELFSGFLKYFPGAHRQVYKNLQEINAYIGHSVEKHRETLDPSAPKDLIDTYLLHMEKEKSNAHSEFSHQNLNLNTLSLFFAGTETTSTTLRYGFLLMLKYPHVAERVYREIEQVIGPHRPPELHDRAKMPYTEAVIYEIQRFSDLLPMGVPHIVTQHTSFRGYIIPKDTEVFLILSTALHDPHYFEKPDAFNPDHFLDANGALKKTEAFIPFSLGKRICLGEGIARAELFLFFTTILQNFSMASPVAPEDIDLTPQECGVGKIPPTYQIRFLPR
Method: as §1, §2

[7] = Phase 2 studies for treatment of CMV infection/diseases: safety/tolerability; assay type: in vivo, human; conditions: doses up to 1200 mg BID
[8] = Drug interaction summary: effect of co-administered drugs on maribavir pharmacokinetics (Tables 1-A, 1-B)
From the text: Drug interaction studies were summarized based on Example 2 and other available data (e.g., in vitro and clinical data).

[9] = biological target: T5, P-gp (Homo sapiens, UniProt P08183); experiment: Inhibition of P-gp efflux of digoxin in cultured Caco-2 cells; assay type: in vitro ADME
T5 construct: P-gp efflux of digoxin (as determined by the corrected efflux ratio) in cultured Caco-2 cells; endogenous in cells; host or cells: Caco-2 cells
T5 sequence (P08183 whole entry): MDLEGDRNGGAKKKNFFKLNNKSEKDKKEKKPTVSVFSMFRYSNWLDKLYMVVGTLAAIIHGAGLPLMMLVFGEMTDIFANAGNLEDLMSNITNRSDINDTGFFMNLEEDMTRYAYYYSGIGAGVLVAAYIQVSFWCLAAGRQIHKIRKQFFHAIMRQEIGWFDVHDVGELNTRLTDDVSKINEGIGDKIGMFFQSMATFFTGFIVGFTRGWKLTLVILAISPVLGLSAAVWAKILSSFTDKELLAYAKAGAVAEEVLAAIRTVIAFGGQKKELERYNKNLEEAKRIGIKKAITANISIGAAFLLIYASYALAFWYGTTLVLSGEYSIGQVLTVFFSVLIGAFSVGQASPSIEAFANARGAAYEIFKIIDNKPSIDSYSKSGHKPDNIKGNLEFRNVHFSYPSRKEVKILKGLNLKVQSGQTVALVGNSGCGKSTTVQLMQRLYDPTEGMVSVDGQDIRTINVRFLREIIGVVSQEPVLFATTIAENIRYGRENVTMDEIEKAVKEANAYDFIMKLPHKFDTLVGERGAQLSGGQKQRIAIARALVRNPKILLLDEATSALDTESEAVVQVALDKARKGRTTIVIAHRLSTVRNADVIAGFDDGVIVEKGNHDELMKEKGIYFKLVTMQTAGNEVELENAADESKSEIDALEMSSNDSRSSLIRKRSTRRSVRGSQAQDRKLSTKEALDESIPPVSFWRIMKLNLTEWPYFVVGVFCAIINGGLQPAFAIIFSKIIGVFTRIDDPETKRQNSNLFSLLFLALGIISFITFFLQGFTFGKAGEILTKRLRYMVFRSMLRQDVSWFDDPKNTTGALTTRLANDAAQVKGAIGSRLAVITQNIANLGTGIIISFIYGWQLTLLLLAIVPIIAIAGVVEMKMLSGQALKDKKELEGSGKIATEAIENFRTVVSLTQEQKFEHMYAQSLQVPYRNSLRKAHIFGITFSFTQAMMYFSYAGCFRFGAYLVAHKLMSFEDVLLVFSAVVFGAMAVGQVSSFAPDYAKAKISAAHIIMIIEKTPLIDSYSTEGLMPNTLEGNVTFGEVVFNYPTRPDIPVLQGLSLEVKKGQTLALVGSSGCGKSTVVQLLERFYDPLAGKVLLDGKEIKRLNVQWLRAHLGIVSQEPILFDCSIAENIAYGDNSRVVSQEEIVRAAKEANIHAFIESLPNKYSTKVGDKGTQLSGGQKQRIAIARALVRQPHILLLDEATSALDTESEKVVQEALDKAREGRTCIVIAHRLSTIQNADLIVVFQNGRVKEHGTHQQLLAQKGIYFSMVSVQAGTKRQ
Method: FIG. 4. Estimation of IC50 of maribavir on P-gp efflux of digoxin (as determined by the corrected efflux ratio) in cultured Caco-2 cells. IC50, half maximal inhibitory concentration; P-gp, P-glycoprotein.
Drug-drug interaction potential of maribavir with cytochrome P450 enzymes and P-glycoprotein (P-gp) was thoroughly characterized. The reversible inhibition, time-dependent inhibition, and induction of CYPs were evaluated in the presence of maribavir using human cells or human-derived cell lines. The inhibition of P-gp was also assessed.

[10] = maribavir 400 mg BID + rifampicin 600 mg QD
[11] = maribavir 400 mg BID with/without rifampicin 600 mg QD
[12] = Aluminum hydroxide and magnesium hydroxide antacid 20 mL single dose, maribavir 100 mg single dose
[13] = Ketoconazole 400 mg single dose, maribavir 400 mg single dose
[14] = Rifampin 600 mg once daily, maribavir 400 mg twice daily

## CC(C)Nc1nc2cc(Cl)c(Cl)cc2n1[C@H]1O[C@@H](CO)[C@H](O)[C@@H]1O [maribavir, (2S,3S,4R,5S)-2-(5,6-dichloro-2-(isopropylamino)-1H-benzo[d]imidazol-1-yl)-5-(hydroxymethyl)tetrahydrofuran-3,4-diol]
[1]; probe midazolam
  KI (inactivation): 41.2 µM
[1]; probe midazolam, midazolam as substrate
  kinact: 0.000195 s⁻¹
[1]; probe testosterone
  KI (inactivation): 167 µM
[1]; probe testosterone, testosterone as substrate
  kinact: 0.000595 s⁻¹
[2]; [10]
  AUC(0-12 h), RATIO GEOMETRIC MEAN PREDICTED/OBSERVED: 0.88
  AUC(0-12 h), RATIO MEAN PREDICTED/OBSERVED: 1.00
  C12 h, RATIO GEOMETRIC MEAN PREDICTED/OBSERVED: 0.22
  C12 h, RATIO MEAN PREDICTED/OBSERVED: 0.83
  Cmax, RATIO GEOMETRIC MEAN PREDICTED/OBSERVED: 0.75
  Cmax, RATIO MEAN PREDICTED/OBSERVED: 0.78
[2]; [11]
  Ratio AUC(0-12 h), RATIO GEOMETRIC MEAN PREDICTED/OBSERVED: 0.85
  Ratio AUC(0-12 h), RATIO MEAN PREDICTED/OBSERVED: 0.91
  Ratio C12 h, RATIO GEOMETRIC MEAN PREDICTED/OBSERVED: 0.24
  Ratio C12 h, RATIO MEAN PREDICTED/OBSERVED: 0.56
  Ratio Cmax, RATIO GEOMETRIC MEAN PREDICTED/OBSERVED: 0.89
  Ratio Cmax, RATIO MEAN PREDICTED/OBSERVED: 0.87
[3]
  reversible inhibition of CYP2A6: not a reversible inhibitor; also recorded: no significant inhibition
[4]
  reversible inhibition of CYP3A4: not a reversible inhibitor; also recorded: no significant inhibition
[5]
  reversible inhibition of CYP2E1: not a reversible inhibitor; also recorded: no significant inhibition
[6]
  reversible inhibition of CYP2B6: not a reversible inhibitor; also recorded: no significant inhibition
[7]
  safety/tolerability profile: no limiting toxicity
[8]; [12]
  Geometric Mean Ratio of Maribavir PK with/without Co-administered Drug (No Effect = 1.00), AUC: 0.89
  Geometric Mean Ratio of Maribavir PK with/without Co-administered Drug (No Effect = 1.00), Cmax: 0.84
[8]; [13]
  Geometric Mean Ratio of Maribavir PK with/without Co-administered Drug (No Effect = 1.00), AUC: 1.53
  Geometric Mean Ratio of Maribavir PK with/without Co-administered Drug (No Effect = 1.00), Cmax: 1.10
[8]; [14]
  Geometric Mean Ratio of Maribavir PK with/without Co-administered Drug (No Effect = 1.00), AUC: 0.40
  Geometric Mean Ratio of Maribavir PK with/without Co-administered Drug (No Effect = 1.00), Cmax: 0.61
[8]; Rifampin 600 mg once daily, maribavir 400 mg twice daily, tau 12 hours
  Geometric Mean Ratio of Maribavir PK with/without Co-administered Drug (No Effect = 1.00), Ctau: 0.18
[9]
  IC50: 33.8 µM
